In article PMC6150237, “Study of Absorption Characteristics of the Total Saponins from Radix Ilicis Pubescentis in an In Situ Single-Pass Intestinal Perfusion (SPIP) Rat Model by Using Ultra Performance Liquid Chromatography (UPLC)” (Molecules : A Journal of Synthetic Chemistry and Natural …, 2017):

Legend:
[1] = system: rat small intestine (duodenum, jejunum, ileum); assay: In situ single-pass intestinal perfusion (SPIP), saponins administrated in MDQ-TS form; type: in vivo
Procedure: (§1) MDQ-TS perfusion samples at low, middle, and high concentration levels of 1.25, 2.5, and 5.0 mg·mL^−1 were prepared by separately dissolving MDQ-TS in the minimum amount of DMSO and diluted with K-R buffer solution. The amount of DMSO was 0.5% in the final perfusion solutions. C1, C2, C3, C4, DC1, and DC2 perfusion samples with the concentration equivalent to the amount contained in 2.5 mg·mL^−1 of MDQ-TS were individually prepared in the same way. Verapamil, amantadine and EDTA were directly dissolved in the MDQ-TS perfusate with terminal concentrations of 200 μmol·L^−1, 2.5 mmol·L^−1, and 2.5 mmol·L^−1, accordingly, and used for investigating the mechanisms involved for absorption.
(§2) In situ single-pass intestinal perfusion (SPIP) studies were performed using an experimental design adapted from the literature with some modifications. Briefly, male Sprague-Dawley rats weighing 180–220 g were acclimatized for at least one week before the experiment, and fasted for 18 h with free access to water before the perfusion experiment. Rats were anesthetized with an intraperitoneal injection of urethane (30 mg·kg^−1 body weight), and kept on a homeothermic blanket to maintain normal body temperature. The abdomen was opened with a midline longitudinal incision, and three segments of rat intestine (duodenum, jejunum, and ileum) of approximately 10 cm each were carefully cannulated on two ends with plastic tubing. Initially, the perfusion solution free of drug (37 °C) was pumped by peristaltic pump (BT100-1F, Longer Pump Co., Baoding, China) through the cannulated segments at a flow rate of 1 mL/min for approximately 30 min in order to clean out any residual debris. Secondly, the perfusion solution containing a known concentration of substance (C1, C2, C3, C4, DC1, DC2, and MDQ-TS) was perfused at 37 °C through the intestinal lumen at a constant flow rate of 0.2 mL/min. The first 20 min of period corresponds to steady state, i.e., when the substance is in equilibrium with the intestinal membrane. After steady state, samples were collected from distal portion of duodenum, jejunum and ileum at 10 min intervals (0–10, 10–20, 20–30, 30–40, 40–50, 50–60 min) in pre-weighted vials. Samples were immediately frozen at −20 °C until analysis by validated UPLC. During the experiment, care was taken to avoid disturbance of the circulatory system and the exposed segment was covered with a piece of sterilized gauze to keep it warm and moist by frequent application of warm (37 °C) saline. The intestinum tenue maintained its viability and intact state without disrupting the blood supply throughout the experimental period. Finally, animals were sacrificed after depth anesthesia by intraperitoneal injection of urethane, according to protocols for euthanasia in experimental animals. After death, the intestinal segment was removed for measurements of length and inside diameter.
(§3) The net water flux in the in situ perfusion studies (water absorption and efflux in the intestinal segment) was determined by gravimetric method. The effective absorption rate constant (Ka) and effective apparent permeability (Papp) of compounds in the intestinal segments were calculated according to the following mathematical expression:(1) Ka=(1−CoutQout/CinQin)Q/V (2) Papp=−Qln(CoutQout/CinQin)/2πrl where Cin and Cout are the concentration of test drug in the effluent perfusate through the inlet and outlet tube (μg·mL^−1), respectively. Qin and Qout represent the inlet and outlet volume of effluent perfusate (mL), respectively. Q is the volume flow rate of perfusion (mL·h^−1). V is the volume of the intestinal segment concerned (mL). 2πrl is the area of the mass transfer surface of intestinal segment concerned (cm^2).

rat duodenum [2] = assay: SPIP of MDQ-TS with or without EDTA (tight junction modulator); type: in vivo; details: MDQ-TS 2.5 mg/mL, EDTA 2.5 mmol·L^−1
Procedure: as §1, §2
as §3, with “(cm^2). […]” for “(cm^2).”

rat duodenum [3] = assay: SPIP of MDQ-TS with or without verapamil (P-gp inhibitor); type: in vivo; details: MDQ-TS 2.5 mg/mL, verapamil 200 μmol·L^−1
Procedure: as §1, §2
as §3, with “(cm^2). […]” for “(cm^2).”

[4] = Apparent oil-water partition coefficient, shake-flask method; type: physicochemical; details: n-octanol / phosphate buffer pH 1.2-9.0, 37 °C; Kow = log Co/(Ct−Co)
Procedure: The equilibrium partitioning of C1, C2, C3, C4, DC1, and DC2 between organic lipid and water (Kow) was determined in our study by the traditional shake-flask method (SFM). Briefly, 0.5 mL of each saponin standard working solution (100 µg·mL^−1 in water-saturated n-octanol) was accurately measured into 5 mL centrifuge tubes, and spiked with 0.5 mL of different phosphate buffer solutions (pH: 1.2, 2.0, 3.6, 5.8, 6.8, 7.4, 7.8, and 9.0), respectively. After vortex-mixing for 45 min, the tubes were kept in a temperature-stable horizontal shaking bath (37 °C) for 24 h, and then centrifuged at 13,000 rpm for 10 min. Two hundred microliters of organic supernatant solution was measured, diluted with 800 µL of methanol, and mixed well. Ten microliters of the final solution was injected into the HPLC system (detailed experimental conditions and method validation results were not shown) for determination of the drug concentration in the n-octanol phase. The Kow values of the six saponins were calculated according to the following mathematical expression:(3) Kow=logCo/Ct−Co where Ct is the total concentration of the drug, and Co is the concentration of the drug in n-octanol phase.

[5] = MDQ-TS form 1.25 mg·mL^−1, duodenum, n = 5
[6] = MDQ-TS form 1.25 mg·mL^−1, ileum, n = 5
[7] = MDQ-TS form 1.25 mg·mL^−1, jejunum, n = 5
[8] = MDQ-TS form 2.5 mg·mL^−1, duodenum, n = 5
[9] = MDQ-TS form 2.5 mg·mL^−1, ileum, n = 5
[10] = MDQ-TS form 2.5 mg·mL^−1, jejunum, n = 5
[11] = MDQ-TS form 5.0 mg·mL^−1, duodenum, n = 5
[12] = MDQ-TS form 5.0 mg·mL^−1, ileum, n = 5
[13] = MDQ-TS form 5.0 mg·mL^−1, jejunum, n = 5

CC1CCC2(C(=O)OC3OC(CO)C(O)C(O)C3O)CCC3(C)C(=CCC4C5(C)CCC(O)C(C)(C(=O)O)C5CCC43C)C2C1(C)O (centres unmarked) [C2, ilexsaponin A1]
Ka [1, 5]: 1.10 ± 0.40 ×10^−2 min^−1 | Ka [1, 6]: 1.61 ± 0.37 ×10^−2 min^−1 | Ka [1, 7]: 0.74 ± 0.25 ×10^−2 min^−1 | Ka [1, 8]: 0.85 ± 0.20 ×10^−2 min^−1 | Ka [1, 9]: 1.89 ± 0.35 ×10^−2 min^−1 | Ka [1, 10]: 0.68 ± 0.18 ×10^−2 min^−1 | Ka [1, 11]: 1.13 ± 0.62 ×10^−2 min^−1 | Ka [1, 12]: 0.85 ± 0.27 ×10^−2 min^−1 | Ka [1, 13]: 1.21 ± 0.51 ×10^−2 min^−1 | Ka increase in comparison with non-EDTA added group (rat duodenum [2]): ~1.6 fold | Papp increase in comparison with non-EDTA added group (rat duodenum [2]): ~1.2 fold | Ka increase in comparison with non-Verapamil added group (rat duodenum [3]): ~4.2 fold | Papp increase in comparison with non-Verapamil added group (rat duodenum [3]): about 2.3 fold | apparent oil-water partition coefficient (Kow) [4]: −1 to 2

ilexsaponin B3 [DC1]
Ka [1, 5]: 0.56 ± 0.17 ×10^−2 min^−1 | Papp [1, 5]: 0.13 ± 0.05 ×10^−2 cm·min^−1 | Ka [1, 6]: 0.59 ± 0.35 ×10^−2 min^−1 | Papp [1, 6]: 0.22 ± 0.13 ×10^−2 cm·min^−1 | Ka [1, 7]: 0.46 ± 0.21 ×10^−2 min^−1 | Papp [1, 7]: 0.23 ± 0.15 ×10^−2 cm·min^−1 | Ka [1, 8]: 1.76 ± 0.44 ×10^−2 min^−1 | Papp [1, 8]: 0.34 ± 0.08 ×10^−2 cm·min^−1 | Ka [1, 9]: 1.65 ± 0.33 ×10^−2 min^−1 | Papp [1, 9]: 0.16 ± 0.07 ×10^−2 cm·min^−1 | Ka [1, 10]: 1.99 ± 0.49 ×10^−2 min^−1 | Papp [1, 10]: 0.35 ± 0.08 ×10^−2 cm·min^−1 | Ka [1, 11]: 1.53 ± 0.55 ×10^−2 min^−1 | Papp [1, 11]: 0.30 ± 0.13 ×10^−2 cm·min^−1 | Ka [1, 12]: 1.21 ± 0.58 ×10^−2 min^−1 | Papp [1, 12]: 0.21 ± 0.11 ×10^−2 cm·min^−1 | Ka [1, 13]: 2.05 ± 0.72 ×10^−2 min^−1 | Papp [1, 13]: 0.32 ± 0.19 ×10^−2 cm·min^−1 | Papp ([1]; administrated in MDQ-TS form, summary bound (except DC2 in 1.25 mg·mL^−1 MDQ-TS group)): > 0.0012 cm/min | Ka increase in comparison with non-EDTA added group (rat duodenum [2]): ~1.4 fold | Papp increase in comparison with non-EDTA added group (rat duodenum [2]): ~1.4 fold | Ka increase in comparison with non-Verapamil added group (rat duodenum [3]): ~2.9 fold | Papp increase in comparison with non-Verapamil added group (rat duodenum [3]): ~3.4 fold | apparent oil-water partition coefficient (Kow) [4]: −1 to 2
